Where “and” joins values, the source holds several entries; their conditions need not be identical. Equal entries are not always repeated. Inconclusive results and toxic doses are left out.

This test relates to L1210 leukemia ip in BDF1 mice, survival T/C. The experiment in a line: NCI In Vivo Anticancer Drug Screen. Data for tumor model L1210 Leukemia (intraperitoneal) in B6D2F1 (BDF1) mice. The note with it: endpoint: mean survival time, higher = longer survival. An outline of the steps: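 Transplanted-tumor mice were given test agent; controls received vehicle only. Survival readings from the two groups were divided (treated over control).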

Setting [1] is: dose: 6.25 mg/kg/injection, schedule: Q04DX003 (ip), vehicle: saline.
Where [2] appears, read: dose: 12.5 mg/kg/injection, schedule: Q04DX003 (ip), vehicle: saline.
The mark [3] stands for this setting: dose: 200.0 mg/kg/injection, schedule: Q01DX001 (ip), vehicle: saline.
The mark [4] stands for this setting: dose: 100.0 mg/kg/injection, schedule: Q01DX009 (ip), vehicle: saline with Tween-80.
Where [5] appears, read: dose: 200.0 mg/kg/injection, schedule: Q01DX009 (ip), vehicle: saline with Tween-80.
Where [6] appears, read: dose: 100.0 mg/kg/injection, schedule: Q04DX003 (ip), vehicle: saline.
The mark [7] stands for this setting: dose: 200.0 mg/kg/injection, schedule: Q04DX003 (ip), vehicle: saline.
Setting [8] is: dose: 400.0 mg/kg/injection, schedule: Q04DX003 (ip), vehicle: saline.

Turning to `Cc1ccc(S(=O)(=O)/C(Cl)=C(/Cl)S(=O)(=O)c2ccc(C)cc2)cc1`, the T/C is, setting by setting: (dose: 3.12 mg/kg/injection, schedule: Q01DX009 (ip), vehicle: saline) 95 % of control; (dose: 6.25 mg/kg/injection, schedule: Q01DX009 (ip), vehicle: saline) 97 % of control; under setting [1], 88 % of control; (dose: 12.5 mg/kg/injection, schedule: Q01DX001 (ip), vehicle: saline) 94 % of control; (dose: 12.5 mg/kg/injection, schedule: Q01DX009 (ip), vehicle: saline with Tween-80) 95 % of control; under setting [2], 92 % of control. The T/C is 92 % of control (dose: 25.0 mg/kg/injection, schedule: Q01DX001 (ip), vehicle: saline); 89 % of control (dose: 25.0 mg/kg/injection, schedule: Q01DX009 (ip), vehicle: saline with Tween-80); 103 % of control under setting [3].

`CCC(O)(CC(=O)O)c1ccccc1` (centres undefined): the T/C under setting [4] was 91 % of control; the T/C (dose: 100.0 mg/kg/injection, schedule: Q04DX003 (ip), vehicle: saline with Tween-80) was 104 % of control; the T/C under setting [5] is 96 % of control; the T/C (dose: 200.0 mg/kg/injection, schedule: Q04DX003 (ip), vehicle: saline with Tween-80) is 104 % of control; the T/C (dose: 400.0 mg/kg/injection, schedule: Q04DX003 (ip), vehicle: saline with Tween-80) is 105 % of control.

For `Cc1cc(N(CCCl)CCCl)c(C)cc1NC(=O)c1ccccc1`, the T/C (dose: 0.75 mg/kg/injection, schedule: Q01DX009 (ip), vehicle: other) was 109 % of control; the T/C (dose: 1.5 mg/kg/injection, schedule: Q01DX009 (ip), vehicle: other) was 105 % of control; the T/C (dose: 3.0 mg/kg/injection, schedule: Q01DX009 (ip), vehicle: other) was 124 % of control; the T/C (dose: 5.0 mg/kg/injection, schedule: Q01DX001 (ip), vehicle: other) is 118 % of control; the T/C (dose: 6.0 mg/kg/injection, schedule: Q01DX009 (ip), vehicle: carboxymethylcellulose (CMC)) was 119 % of control; the T/C (dose: 10.0 mg/kg/injection, schedule: Q01DX001 (ip), vehicle: other) was 114 % of control. In addition, the T/C (dose: 10.0 mg/kg/injection, schedule: Q01DX001 (ip), vehicle: saline) is 117 % of control; the T/C (dose: 10.0 mg/kg/injection, schedule: Q01DX009 (ip), vehicle: carboxymethylcellulose (CMC)) is 119 % of control; the T/C (dose: 17.6 mg/kg/injection, schedule: Q01DX001 (ip), vehicle: carboxymethylcellulose (CMC)) was 111 % of control; the T/C (dose: 17.6 mg/kg/injection, schedule: Q01DX001 (ip), vehicle: other) was 110 % of control and 115 % of control; the T/C (dose: 18.0 mg/kg/injection, schedule: Q01DX009 (ip), vehicle: carboxymethylcellulose (CMC)) is 117 % of control; the T/C (dose: 20.0 mg/kg/injection, schedule: Q01DX001 (ip), vehicle: other) is 122 % of control. In addition, the T/C was 96 % of control (dose: 20.0 mg/kg/injection, schedule: Q01DX001 (ip), vehicle: saline); 120 % of control (dose: 26.0 mg/kg/injection, schedule: Q01DX001 (ip), vehicle: carboxymethylcellulose (CMC)); 115 % of control (dose: 26.0 mg/kg/injection, schedule: Q01DX001 (ip), vehicle: other); 101 % of control (dose: 30.0 mg/kg/injection, schedule: Q01DX009 (ip), vehicle: carboxymethylcellulose (CMC)); 96 % of control (dose: 30.0 mg/kg/injection, schedule: Q01DX009 (ip), vehicle: other); 124 % of control (dose: 40.0 mg/kg/injection, schedule: Q01DX001 (ip), vehicle: other). Moreover, the T/C (dose: 40.0 mg/kg/injection, schedule: Q01DX001 (ip), vehicle: saline) was 122 % of control; the T/C (dose: 80.0 mg/kg/injection, schedule: Q01DX001 (ip), vehicle: carboxymethylcellulose (CMC)) was 120 % of control; the T/C (dose: 80.0 mg/kg/injection, schedule: Q01DX001 (ip), vehicle: saline) is 114 % of control; the T/C (dose: 120.0 mg/kg/injection, schedule: Q01DX001 (ip), vehicle: carboxymethylcellulose (CMC)) is 88 % of control.

For the compound `[Cl][Pt+2][Cl].[NH-]CC1CCCC[N-]1` (centres undefined), the T/C (dose: 3.13 mg/kg/injection, schedule: Q04DX003 (ip), vehicle: saline) is 111 % of control; the T/C under setting [1] was 108 % of control; the T/C under setting [2] is 122 % of control; the T/C under setting [6] was 163 % of control; the T/C under setting [7] is 120 % of control.

Turning to `CC1(C)Oc2c(ccc(O)c2CN2CCCC2)C2=C1CCCC2`, the T/C reads like this: (dose: 100.0 mg/kg/injection, schedule: Q01DX001 (ip), vehicle: saline) 95 % of control; under setting [3], 95 % of control; (dose: 400.0 mg/kg/injection, schedule: Q01DX001 (ip), vehicle: saline) 95 % of control.

For `O=C(Nc1cccc(C(F)(F)F)c1)Oc1ccc(Cl)cc1Cc1ccccc1`, the T/C was 98 % of control under setting [4]; 93 % of control under setting [5]; 92 % of control (dose: 400.0 mg/kg/injection, schedule: Q01DX009 (ip), vehicle: saline with Tween-80).

On to `Clc1ccc(/C=C/c2ccc3ccccc3n2)cc1`, for which the T/C is, setting by setting: (dose: 75.0 mg/kg/injection, schedule: Q01DX Z (ip), vehicle: carboxymethylcellulose (CMC)) 96 % of control; (dose: 113.0 mg/kg/injection, schedule: Q01DX Z (ip), vehicle: carboxymethylcellulose (CMC)) 90 % of control; (dose: 170.0 mg/kg/injection, schedule: Q01DX Z (ip), vehicle: carboxymethylcellulose (CMC)) 88 % of control; (dose: 255.0 mg/kg/injection, schedule: Q01DX Z (ip), vehicle: carboxymethylcellulose (CMC)) 88 % of control.

Turning to `NC1(C(=O)O)CCc2ccccc2C1` (centres undefined), the T/C (dose: 100.0 mg/kg/injection, schedule: Q04DX003 (ip), vehicle: Klucel (hydroxypropylcellulose) (HPC)) is 91 % of control and the T/C (dose: 400.0 mg/kg/injection, schedule: Q04DX003 (ip), vehicle: Klucel (hydroxypropylcellulose) (HPC)) was 99 % of control.

As for `O=C1c2ccccc2C(=O)N1OCc1ccc(CON2C(=O)c3ccccc3C2=O)cc1`, the T/C by setting is: under setting [6], 101 % of control; under setting [7], 95 % of control; under setting [8], 95 % of control.

For `CC1CCCCN1Cc1ccccc1COC(=O)c1ccc([N+](=O)[O-])cc1Cl` (centres undefined), the T/C reads like this: (dose: 100.0 mg/kg/injection, schedule: Q04DX002 (ip), vehicle: saline with Tween-80) 94 % of control; (dose: 200.0 mg/kg/injection, schedule: Q04DX002 (ip), vehicle: saline with Tween-80) 97 % of control.

Consider `CC(=O)Nc1ccc(SSSc2ccc(NC(C)=O)cc2)cc1`, for which the T/C was 100 % of control (dose: 1.56 mg/kg/injection, schedule: Q01DX009 (ip), vehicle: water); 92 % of control (dose: 3.12 mg/kg/injection, schedule: Q01DX009 (ip), vehicle: water); 96 % of control (dose: 6.25 mg/kg/injection, schedule: Q01DX009 (ip), vehicle: water); 91 % of control (dose: 12.5 mg/kg/injection, schedule: Q01DX009 (ip), vehicle: water); 94 % of control and 88 % of control (dose: 25.0 mg/kg/injection, schedule: Q01DX009 (ip), vehicle: water); 92 % of control (dose: 200.0 mg/kg/injection, schedule: Q01DX009 (ip), vehicle: water).

As for `CCOC(=O)c1cnc(SCC)nc1N`, the T/C runs as follows: under setting [6], 101 % of control; under setting [7], 98 % of control; under setting [8], 103 % of control.

On to `CC(=O)Nc1ccc(NC(=O)c2ccc([As](O)O)cc2)cc1`, for which the T/C was 100 % of control (dose: 25.0 mg/kg/injection, schedule: Q01DX001 (ip), vehicle: carboxymethylcellulose (CMC)); 102 % of control (dose: 50.0 mg/kg/injection, schedule: Q01DX001 (ip), vehicle: carboxymethylcellulose (CMC)); 107 % of control (dose: 100.0 mg/kg/injection, schedule: Q01DX001 (ip), vehicle: carboxymethylcellulose (CMC)); 113 % of control (dose: 200.0 mg/kg/injection, schedule: Q01DX001 (ip), vehicle: carboxymethylcellulose (CMC)).

Regarding `CC(=O)c1cccc(NC(=O)Nc2ccc(Nc3ccccc3)cc2)c1`, the T/C (dose: 100.0 mg/kg/injection, schedule: Q01DX009 (ip), vehicle: other) was 103 % of control; the T/C (dose: 200.0 mg/kg/injection, schedule: Q01DX009 (ip), vehicle: other) is 101 % of control; the T/C (dose: 400.0 mg/kg/injection, schedule: Q01DX009 (ip), vehicle: other) was 93 % of control.

Values taken from PubChem BioAssay AID248 (DTP/NCI, 2004).
